{"source": "paper PMC3602143", "about": "(Bioorganic & medicinal chemistry letters, 2013)", "key": {"[1]": {"conditions": "background statement; cited from earlier work"}, "[2]": {"test_system": "strain of T. gondii engineered to express the bacterial GlpT", "conditions": "ref [22]; cited from earlier work"}, "T. gondii": {"test_system": "T. gondii", "assay": "T. gondii growth / proliferation", "type": "cell-based, Toxoplasma gondii", "conditions": "previous method of ref [22]"}, "[3]": {"test_system": "bacteria including E. coli", "conditions": "ref [11]; cited from earlier work"}, "[4]": {"biological_target": "T1, recombinant T. gondii DXR (TgDXR) (Toxoplasma gondii, UniProt S8ESX0)", "T1 sequence (S8ESX0 187-632)": "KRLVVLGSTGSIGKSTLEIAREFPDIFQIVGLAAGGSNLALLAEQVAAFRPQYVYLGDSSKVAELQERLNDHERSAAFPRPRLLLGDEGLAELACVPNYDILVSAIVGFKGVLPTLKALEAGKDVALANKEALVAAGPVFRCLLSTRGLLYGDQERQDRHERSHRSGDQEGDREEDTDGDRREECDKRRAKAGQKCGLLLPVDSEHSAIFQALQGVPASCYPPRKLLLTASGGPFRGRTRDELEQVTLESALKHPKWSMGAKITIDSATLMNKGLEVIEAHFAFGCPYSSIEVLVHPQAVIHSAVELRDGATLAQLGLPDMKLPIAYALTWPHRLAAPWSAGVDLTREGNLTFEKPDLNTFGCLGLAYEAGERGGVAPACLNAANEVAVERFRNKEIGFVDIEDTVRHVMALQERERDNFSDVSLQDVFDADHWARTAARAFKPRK", "assay": "TgDXR enzyme inhibition assay", "type": "biochemical", "conditions": "average of acetyl analogs 8 and 9 vs 6 and 7"}, "malaria parasites": {"test_system": "malaria parasites", "conditions": "ref [16]; cited from earlier work"}, "[5]": {"test_system": "Mycobacterium tuberculosis DXR", "conditions": "read-out: Km of Mycobacterium tuberculosis DXR; substrate DXP; ref [23]; cited from earlier work"}, "EcDXR": {"test_system": "EcDXR", "conditions": "read-out: Km of EcDXR; substrate DXP; ref [13]; cited from earlier work"}, "PfDXR": {"test_system": "PfDXR", "conditions": "read-out: Km of PfDXR; substrate DXP; ref [15]; cited from earlier work"}, "[6]": {"substrate": "CC(=O)[C@@H](O)[C@H](O)COP(=O)(O)O", "assay": "TgDXR enzyme inhibition assay", "type": "biochemical, Toxoplasma gondii", "conditions": "other: DXP 10 to 450 μM, [Mg2+] = 4 mM, Michaelis-Menten fit; 30.0 °C"}}, "data": [{"molecule": "O=CN(O)CCCP(=O)(O)O", "note": "[Compound 1, Fosmidomycin]", "values": [{"measurement": "half-life in plasma", "setting": "[1]", "result": "very short"}, {"measurement": "killing of GlpT-expressing T. gondii", "setting": "[2]", "result": "can effectively kill"}]}, {"molecule": "O=c1ccc(-c2ccccc2)cn1O", "note": "[Compound 5]", "values": [{"measurement": "block of proliferation / activity against growth of T. gondii", "setting": "T. gondii", "result": "does not block proliferation"}, {"measurement": "antibacterial activity", "setting": "[3]", "result": "broad antibacterial activity"}]}, {"molecule": "CC(=O)N(O)CCC(c1cccnc1)P(=O)(O)O", "note": "(stereo not drawn) [Compound 8]", "values": [{"measurement": "fold less activity against TgDXR than formyl analogs 6 and 7", "setting": "[4]", "result": "~ 11 fold"}]}, {"molecule": "CC(=O)N(O)CCC(c1ccncc1)P(=O)(O)O", "note": "(stereo not drawn) [Compound 9]", "values": [{"measurement": "fold less activity against TgDXR than formyl analogs 6 and 7", "setting": "[4]", "result": "~ 11 fold"}]}, {"molecule": "O=CN(O)CCC(c1ccc(Cl)c(Cl)c1)P(=O)(O)O", "note": "(stereo not drawn) [Compound 10]", "values": [{"measurement": "antimalarial activities", "setting": "malaria parasites", "result": "potent"}]}, {"molecule": "CC(=O)N(O)CCC(c1ccc(Cl)c(Cl)c1)P(=O)(O)O", "note": "(stereo not drawn) [Compound 11]", "values": [{"measurement": "antimalarial activities", "setting": "malaria parasites", "result": "potent"}]}, {"molecule": "CC(=O)[C@@H](O)[C@H](O)COP(=O)(O)O", "note": "[DXP, 1-deoxy-D-xylulose-5-phosphate]", "values": [{"measurement": "Km", "setting": "[5]", "result": 47, "unit": "µM"}, {"measurement": "Km", "setting": "EcDXR", "result": 99, "unit": "µM"}, {"measurement": "Km", "setting": "PfDXR", "result": 106, "unit": "µM"}]}, {"molecule": "recombinant T. gondii DXR (TgDXR) (Toxoplasma gondii ME49) (protein) KRLVVLGSTGSIGKSTLEIAREFPDIFQIVGLAAGGSNLALLAEQVAAFRPQYVYLGDSSKVAELQERLNDHERSAAFPRPRLLLGDEGLAELACVPNYDILVSAIVGFKGVLPTLKALEAGKDVALANKEALVAAGPVFRCLLSTRGLLYGDQERQDRHERSHRSGDQEGDREEDTDGDRREECDKRRAKAGQKCGLLLPVDSEHSAIFQALQGVPASCYPPRKLLLTASGGPFRGRTRDELEQVTLESALKHPKWSMGAKITIDSATLMNKGLEVIEAHFAFGCPYSSIEVLVHPQAVIHSAVELRDGATLAQLGLPDMKLPIAYALTWPHRLAAPWSAGVDLTREGNLTFEKPDLNTFGCLGLAYEAGERGGVAPACLNAANEVAVERFRNKEIGFVDIEDTVRHVMALQERERDNFSDVSLQDVFDADHWARTAARAFKPRK", "values": [{"measurement": "Km", "setting": "[6]", "result": "25.5 ± 3.7", "unit": "µM"}]}]}
